Measurements reported in ChEMBL document CHEMBL1201862, “PubChem BioAssay data set” (2004).
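Protocol summary: plate cells (96-well), add compound at 5 concentrations, incubate 48 h, interpolate endpoints linearly. GI50 = concentration required for 50% inhibition of growth.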 Activity calls are given as the source filed them. No stated cut-off is given here; in the data, active = GI50 up to about 1.1 µM and inactive = higher.

Assays:
Assay in all cases: NCI tumour cell line growth inhibition, 48 h
SNB-78 = test system: SNB-78
KM-20L2 = test system: KM-20L2
M19-MEL = test system: M19-MEL
XF498 = test system: XF498
DMS-273 = test system: DMS-273
LXFL 529 = test system: LXFL 529
DLD-1 = test system: DLD-1
HOP-18 = test system: HOP-18
RXF 631 = test system: RXF 631

Measured: GI50

O=C1NC2(C=Cc3c(ccc4ccccc34)O2)Oc2ccccc21 (stereo not drawn)
inactive: SNB-78 20.7 µM | KM-20L2 25.8 µM | M19-MEL 25.1 µM | XF498 19.1 µM | DMS-273 9.51 µM | LXFL 529 18.3 µM

COc1ccc(-c2[nH]c3ccccc3c2CCNS(=O)(=O)c2ccc(C)cc2)cc1
inactive: SNB-78 > 10 µM | DLD-1 8.09 µM | KM-20L2 > 8.47 µM | M19-MEL > 8.39 µM | XF498 > 8.83 µM | HOP-18 > 7.4 µM | RXF 631 > 8.49 µM | DMS-273 7.48 µM | LXFL 529 > 10 µM

O=C1CCC(=O)c2ccccc2N1
inactive: DLD-1 > 100 µM | KM-20L2 > 100 µM | M19-MEL > 100 µM | XF498 > 100 µM | HOP-18 > 100 µM | DMS-273 > 100 µM | LXFL 529 > 100 µM

CCc1ccccc1NC(=O)C(=O)C(C(=O)c1ccc(OC)cc1)c1ccc(OC)cc1 (stereo not drawn)
inactive: SNB-78 > 100 µM | DLD-1 > 100 µM | KM-20L2 > 100 µM | XF498 > 100 µM | HOP-18 > 100 µM | RXF 631 > 100 µM | DMS-273 > 100 µM | LXFL 529 > 100 µM

CCOC(=O)N1CCc2cc(OC)c(OC)c3c2C1CC3=O (stereo not drawn)
inactive: SNB-78 > 100 µM | DLD-1 > 100 µM | KM-20L2 > 100 µM | M19-MEL > 100 µM | HOP-18 > 100 µM | DMS-273 > 100 µM | LXFL 529 > 100 µM

O=C(NCCCCCCCCNC(=O)c1cnc2ccccc2n1)c1cnc2ccccc2n1
inactive: SNB-78 > 100 µM | DLD-1 > 100 µM | M19-MEL > 100 µM | XF498 > 100 µM | HOP-18 > 100 µM | DMS-273 > 100 µM | LXFL 529 > 100 µM

Cc1nc2ccccc2c(=O)n1-c1ccccc1F
inactive: SNB-78 > 100 µM | DLD-1 > 100 µM | KM-20L2 > 100 µM | M19-MEL > 100 µM | HOP-18 > 100 µM | DMS-273 > 100 µM | LXFL 529 > 100 µM

CN(OC(=O)CC(=O)c1ccccc1)C(=O)Cc1ccccc1
inactive: SNB-78 > 100 µM | DLD-1 > 100 µM | KM-20L2 > 100 µM | M19-MEL > 100 µM | RXF 631 > 100 µM | LXFL 529 > 100 µM

COC(=O)c1c(CC#N)cccc1CC#N
inactive: DLD-1 > 100 µM | KM-20L2 > 100 µM | M19-MEL > 100 µM | XF498 > 100 µM | RXF 631 > 100 µM | DMS-273 > 100 µM | LXFL 529 > 100 µM

C=C(CO)CC(O)c1cc(OC)ccc1OC (stereo not drawn)
inactive: M19-MEL > 100 µM | XF498 > 100 µM | DMS-273 > 100 µM | LXFL 529 > 100 µM

OCCN1CCN2C=C(C3CCCC4N(CCO)CCN34)CCC21 (stereo not drawn)
inactive: SNB-78 37.9 µM | DLD-1 22.7 µM | KM-20L2 > 100 µM | M19-MEL 34.7 µM | XF498 48.1 µM | HOP-18 > 100 µM | DMS-273 49.2 µM | LXFL 529 43.8 µM

Cc1nc(Nc2ccc(Cl)cc2)sc1C(=O)NNC(=S)NN
inactive: SNB-78 19.5 µM | DLD-1 16.6 µM | KM-20L2 17.5 µM | M19-MEL 22.3 µM | XF498 21.2 µM | HOP-18 18.3 µM | RXF 631 19.5 µM | DMS-273 18.6 µM | LXFL 529 20 µM

O=C1CCC(=O)N1CNc1cccc(NCN2C(=O)CCC2=O)c1
inactive: SNB-78 > 100 µM | DLD-1 > 100 µM | KM-20L2 11 µM | M19-MEL > 100 µM | XF498 > 100 µM | RXF 631 > 100 µM | DMS-273 61.1 µM | LXFL 529 56.8 µM

CC(=O)Nc1ccc(S(=O)(=O)NN(C)S(=O)(=O)c2ccc(C)cc2)cc1
inactive: DLD-1 > 100 µM | KM-20L2 > 100 µM | M19-MEL > 100 µM

Cc1ccc(C)c(NC(=O)CC/C(=N\NC(=O)C(N)=O)C(C)C(=O)c2ccc(O)cc2)c1 (stereo not drawn)
inactive: SNB-78 > 100 µM | DLD-1 > 100 µM | KM-20L2 > 100 µM | M19-MEL > 100 µM | HOP-18 > 100 µM | RXF 631 > 100 µM | LXFL 529 > 100 µM

C=C(C)CCOC(c1ccccc1)(c1ccccc1)c1ccccc1
inactive: SNB-78 70.1 µM | DLD-1 60.4 µM | KM-20L2 23.5 µM | M19-MEL 27.9 µM | XF498 26.1 µM | RXF 631 55.5 µM | LXFL 529 45.8 µM

Cn1nc(-c2ccccc2)c(N=[N+]=[N-])cc1=O
inactive: KM-20L2 > 100 µM | M19-MEL > 100 µM | XF498 > 100 µM | DMS-273 > 100 µM | LXFL 529 > 100 µM

CCCCCCCCCCCCCC(=O)OCC1OC(n2cc(F)c(=O)[nH]c2=O)C(NC(=O)OCc2ccccc2)C(OC(=O)CCCCCCCCCCCCC)C1O (stereo not drawn)
inactive: SNB-78 > 100 µM | DLD-1 > 100 µM | KM-20L2 > 100 µM | M19-MEL > 100 µM | XF498 > 100 µM | HOP-18 > 100 µM | RXF 631 > 100 µM | DMS-273 > 100 µM | LXFL 529 > 100 µM

CN(C)c1ccc(/C=C2\Cc3ccccc3C2=O)cc1Br
inactive: SNB-78 59.8 µM | DLD-1 47.5 µM | KM-20L2 81.8 µM | M19-MEL 51.1 µM | XF498 26.1 µM | LXFL 529 33.8 µM

N#C/C(=C1\OC(=N)C(c2ccc(Cl)cc2)=C1O)c1ccc(Cl)cc1
inactive: SNB-78 12.8 µM | DLD-1 15.3 µM | KM-20L2 18.4 µM | M19-MEL 15.1 µM | HOP-18 16.9 µM | DMS-273 13.5 µM | LXFL 529 11.7 µM

COC(=O)OCC1OC(N2C(=O)NC(=O)C(Br)C2N=[N+]=[N-])CC1OC(=O)OC (stereo not drawn)
inactive: SNB-78 > 100 µM | DLD-1 > 100 µM | KM-20L2 > 100 µM | M19-MEL > 100 µM | XF498 > 100 µM | DMS-273 > 100 µM | LXFL 529 > 100 µM

COc1ccc2c(c1)[n+]([O-])c(C(=O)C/C(=N/NC(=O)C[N+](C)(C)C)C(=O)Nc1cccc(C)c1C)c(C)[n+]2[O-]
inactive: SNB-78 > 100 µM | DLD-1 > 100 µM | KM-20L2 > 100 µM | M19-MEL > 100 µM | HOP-18 > 100 µM | RXF 631 > 100 µM | DMS-273 > 100 µM | LXFL 529 > 100 µM

C=CC[C@H]1C[C@@]2(C)OC[C@H](C(C)C)N2C1=O
inactive: SNB-78 > 100 µM | KM-20L2 > 100 µM | M19-MEL > 100 µM | XF498 > 100 µM | HOP-18 > 100 µM | DMS-273 > 100 µM

Cn1c(=O)c2c(ncn2CCCCn2ccnc2[N+](=O)[O-])n(C)c1=O
inactive: SNB-78 > 100 µM | KM-20L2 > 100 µM | M19-MEL > 100 µM | XF498 > 100 µM | DMS-273 > 100 µM | LXFL 529 > 100 µM

C=CC(=O)NCCSCCCOC1(C(=O)O)CC(O)C(NC(C)=O)C(C(O)C(O)CO)O1 (stereo not drawn)
inactive: SNB-78 > 100 µM | DLD-1 > 100 µM | XF498 > 100 µM | DMS-273 > 100 µM | LXFL 529 > 100 µM

CC(=O)OC[C@]1(O)CC[C@@]23CC1C[C@@H]2CCC1C(C)(C)CCC[C@@]13C (stereo partly drawn)
inactive: SNB-78 16.1 µM | DLD-1 15.3 µM | KM-20L2 17.3 µM | M19-MEL 16 µM | XF498 14.1 µM | RXF 631 14.2 µM | DMS-273 3.65 µM | LXFL 529 11.2 µM

COC(=O)C1[C@@H](C(=O)OC)C(=O)O[C@H]1c1cc(OC)c(OC)c(OC)c1 (stereo partly drawn)
inactive: SNB-78 > 100 µM | DLD-1 > 100 µM | KM-20L2 > 100 µM | M19-MEL > 100 µM | HOP-18 > 100 µM | DMS-273 > 100 µM | LXFL 529 > 100 µM

CCCCCCCCCCCCC(O)C1CCC(C(O)CCCCC(O)CCCCCC2CC(CC(C)=O)C(=O)O2)O1 (stereo not drawn)
inactive: SNB-78 12.5 µM | DLD-1 6.21 µM | KM-20L2 4.29 µM | M19-MEL 2.45 µM | XF498 1.82 µM | HOP-18 11.3 µM | RXF 631 3.17 µM | DMS-273 2.21 µM | LXFL 529 2.81 µM
